Measured values taken from patent US20230257385A1, “SALT AND SOLID FORMS OF TABERNANTHALOG” (priority 2021, published 2023).
Where a name gives a salt, the structure may show the parent alone. Read-outs that look alike come from different tables or passages of the source.

Key:
[1] = cited from earlier work
[2] = Thermocycling of the monofumarate salt (Experiment Reference 9); assay type: physicochemical; details: for XRPD (moist pellet): form (pattern) of wet pellet after thermocycling; for crystal form change following dry: moist pellet vs oven dried pellet after thermocycling, ✓ / x; for XRPD crystallinity (oven dried): tabernanthalog monofumarate salt thermocycled between 20° C. and peak T (75% of solvent b.p.), solvent, input and number of cycles per sample reference
Protocol: The tabernanthalog monofumarate salt (Pattern #1, 75 mg, 1 wt) was weighed out in to 4 separate vials and the corresponding solvents (750 μl, 10 vol) from Table 89 were charged.
The suspensions underwent constant amplitude thermocycling at +0.5° C./min up to 75% of the relevant solvent b.p. and −0.5° C./min down to 20° C. The thermocycle was repeated 5 times for 9-A (Experiment Reference 9-Sample Reference A) to 9-D (Experiment Reference 9-Sample Reference D) prior to working up the samples, analyzed the by XRPD (wet and dry). 9-E (Experiment Reference 9-Sample Reference E) and 9-F (Experiment Reference 9-Sample Reference F) were subjected to 10 cycles and 9-G (Experiment Reference 9-Sample Reference G) to 35 cycles.
Thermocycling in different solvents can promote the formation of alternative polymorphic forms. The tabernanthalog monofumarate salt (Pattern #1), was heated and cooled between 20° C. and 75% of the relevant solvent b.p. at 0.5° C./minute, for 5 consecutive cycles; a 10-minute dwell was incorporated at each inflection. Thermocycling is ripening technique, that encourages particle size enlargement and promotes the evolution of the API into a stable phase. […] The products were analyzed both wet and dry to determine if form changes had occurred, all products were consistent with previously encountered patterns, and by DSC none of the products were single phase.

[3] = Stability examination of supplied monofumarate material at 40° C./75% RH (Example 5, Experiment Reference 2); assay type: physicochemical
[4] = Equilibrium humidity evaluation 75% RH/40° C., 10 days (Example 8, Experiment 6); assay type: physicochemical
Protocol: The experimental procedure that accompany this experiment is provided in Section G.ii.
All forms were maintained under constant equilibrium humidity (75% RH). XRPD, DSC, TGA, PLM and ^1H NMR analyses were performed on the absorbents at t=5 d and t=10 d, to confirm their physical fates and to determine the extent of residual solvent exchange or sequestration.
100 mg portions of Tabernanthalog salts ([…]) were placed in the relevant open vials. The powders were finely divided and distributed evenly over the base of the vial, such that equal material coverage across the panel was observed. These samples were then maintained 40° C. under 75% RH. The samples were sub-sampled at intervals of 5 and 10 days and analyzed by ^1H NMR, HPLC, XRPD, DSC, TGA and PLM, for evidence of phase change or chemical degradation.

[5] = Dynamic vapour sorption (DVS) of selected salts (Example 8); assay type: physicochemical
Protocol: DVS: The moisture sorption properties of the feed API were analyzed by DVS Intrinsic instrument (Surface Measurement System). Approximately 20-50 mg of API was weighed on an aluminum pan and loaded into the instrument equilibrated at 25° C. The sample was allowed to equilibrate under dry atmosphere (0% relative humidity) for 60 minutes before increasing the humidity from 0% to 30% at 5% step increment and from 30% to 90% at 10% step increment. A desorption cycle was also applied from 90% to 30% (10% step) and from 30% to 0% (5% decrement). A rate of change in mass per time unit (dm/dt) of 0.002%/min was set as the equilibrium parameter. Kinetic and isotherm graphs were calculated.

[6] = counter ion (acid), theoretical pKa value

O=C(O)[C@H](O)[C@@H](O)[C@H](O)[C@H](O)CO [D-Gluconic acid]
pKa1 [1, 6]: 3.8
pKa1 ([1]; counter ion of the salt screen): 3.80

O=C[C@H](O)[C@@H](O)[C@H](O)[C@H](O)C(=O)O [D-Glucuronic acid]
pKa1 [1, 6]: 3.2
pKa1 ([1]; counter ion of the salt screen): 3.20

CCS(=O)(=O)O [Ethane sulfonic acid]
pKa1 [1, 6]: 2.05

O=S(=O)(O)CCS(=O)(=O)O [Ethane-1,2-disulfonic acid]
pKa1 ([1]; counter ion of the salt screen): −2.10
pKa2 ([1]; counter ion of the salt screen): −1.50

CCS(=O)(=O)O [Ethanesulfonic acid]
pKa1 ([1]; counter ion of the salt screen): −2.10
pKa2 ([1]; counter ion of the salt screen): −1.50

O=C(O)[C@@H](O)[C@H](O)[C@H](O)[C@@H](O)C(=O)O [Galactaric acid]
pKa1 [1, 6]: 3.1
pKa2 [1, 6]: 3.6

O=C(O)CO [Glycolic acid]
pKa1 [1, 6]: 3.3
pKa1 ([1]; counter ion of the salt screen): 3.30

Br [Hydrobromic acid]
pKa1 ([1]; counter ion of the salt screen): −9.00

COc1ccc2c3c([nH]c2c1)CCN(C)CC3.O=C(O)/C=C/C(=O)O [Pattern 9-A]
XRPD (moist pellet) [2]: Incoherent
crystal form change following dry [2]: ✓
XRPD crystallinity (oven dried) [2]: 82.1%

COc1ccc2c3c([nH]c2c1)CCN(C)CC3.O=C(O)/C=C/C(=O)O [Pattern 9-B]
XRPD (moist pellet) [2]: Pattern #1
XRPD crystallinity (oven dried) [2]: 73.6%

COc1ccc2c3c([nH]c2c1)CCN(C)CC3.O=C(O)/C=C/C(=O)O [Pattern 9-C]
XRPD (moist pellet) [2]: Pattern #8
XRPD crystallinity (oven dried) [2]: 72.8%

COc1ccc2c3c([nH]c2c1)CCN(C)CC3.O=C(O)/C=C/C(=O)O [Pattern 9-D]
XRPD (moist pellet) [2]: Pattern #3
XRPD crystallinity (oven dried) [2]: 74.5%

COc1ccc2c3c([nH]c2c1)CCN(C)CC3.O=C(O)/C=C/C(=O)O [Pattern 9-E]
XRPD (moist pellet) [2]: Pattern #2c
XRPD crystallinity (oven dried) [2]: 77.1%

COc1ccc2c3c([nH]c2c1)CCN(C)CC3.O=C(O)/C=C/C(=O)O [Pattern 9-F]
XRPD (moist pellet) [2]: Pattern #2c
crystal form change following dry [2]: ✓
XRPD crystallinity (oven dried) [2]: 82.3%

COc1ccc2c3c([nH]c2c1)CCN(C)CC3.O=C(O)/C=C/C(=O)O [Pattern 9-G]
XRPD (moist pellet) [2]: Pattern #2c
XRPD crystallinity (oven dried) [2]: 81.1%

COc1ccc2c3c([nH]c2c1)CCN(C)CC3.O=C(O)/C=C/C(=O)O [Tabernanthalog fumarate (CAT8931)]
HPLC (% area) ([3]; 2-A, open-necked, wide vial at 75% RH/40° C., t = 2 w): 97.26 % area
HPLC (% area) ([3]; 2-A, open-necked, wide vial at 75% RH/40° C., t = 3 w): 97.01 % area
HPLC (% area) ([3]; 2-A, open-necked, wide vial at 75% RH/40° C., t = 4 w): 97.98 % area
HPLC (% area) ([3]; 2-A, open-necked, wide vial at 75% RH/40° C., t = 5 w): 97.34 % area
HPLC (% area) ([3]; 2-B, sealed PK0056 electrostatic bags at 75% RH/40° C., t = 2 w): 97.44 % area
HPLC (% area) ([3]; 2-B, sealed PK0056 electrostatic bags at 75% RH/40° C., t = 3 w): 97.02 % area
HPLC (% area) ([3]; 2-B, sealed PK0056 electrostatic bags at 75% RH/40° C., t = 4 w): 98.38 % area
HPLC (% area) ([3]; 2-B, sealed PK0056 electrostatic bags at 75% RH/40° C., t = 5 w): 97.54 % area
HPLC (% area) ([3]; input batch, before exposure): 97.64 % area

COc1ccc2c3c([nH]c2c1)CCN(C)CC3 [supplied material (Pattern #1), 8-methoxy-3-methyl-1H,2H,3H,4H,5H,6H-azepino[4,5-b]indole fumarate]
physical and chemical stability ([3]; 75% RH at 40° C., open vial and double polyethene bagged, up to 5 w, XRPD, HPLC, TGA, DSC, fumarate): no evidence for hydrate formation, chemical degradation or disproportionation

COc1ccc2c3c([nH]c2c1)CCN(C)CC3.O=C(O)C(O)C(O)C(=O)O [tabernanthalog tartrate salt]
change in chemical purity (trended HPLC) ([4]; 75% RH/40° C., after 10 days): largest decrease in chemical purity
water uptake / hydrate formation (TGA, DSC) ([4]; 75% RH/40° C., t=5 d and t=10 d): no significant water absorption
powder diffraction pattern versus input (form stability) ([4]; 75% RH/40° C., t=5 days and t=10 days): no significant changes to the powder diffraction pattern
Tabernanthalog RRT = 1.00 (trended HPLC data, chemical purity) ([4]; Tartrate salt, input before humidity exposure): 99.39
DVS sorption/desorption isotherm ([5]; 0 to 90 to 0% RH, 25° C., dm/dt 0.002%/min): hygroscopic type of isotherm
DVS 0 to 90 to 0% RH (dm/dt <0.002%), mass change ([5]; desorption, 0.0% RH): 0.02%
DVS 0 to 90 to 0% RH (dm/dt <0.002%), mass change ([5]; desorption, 5.0% RH): 0.03%
DVS 0 to 90 to 0% RH (dm/dt <0.002%), mass change ([5]; desorption, 10.0% RH): 0.04%
DVS 0 to 90 to 0% RH (dm/dt <0.002%), mass change ([5]; desorption, 15.0% RH): 0.07%
DVS 0 to 90 to 0% RH (dm/dt <0.002%), mass change ([5]; desorption, 20.0% RH): 0.08%
DVS 0 to 90 to 0% RH (dm/dt <0.002%), mass change ([5]; desorption, 25.0% RH): 0.11%
DVS 0 to 90 to 0% RH (dm/dt <0.002%), mass change ([5]; desorption, 30.0% RH): 0.13%
DVS 0 to 90 to 0% RH (dm/dt <0.002%), mass change ([5]; desorption, 40.0% RH): 0.20%
DVS 0 to 90 to 0% RH (dm/dt <0.002%), mass change ([5]; desorption, 50.0% RH): 0.27%
DVS 0 to 90 to 0% RH (dm/dt <0.002%), mass change ([5]; desorption, 60.0% RH): 0.37%
DVS 0 to 90 to 0% RH (dm/dt <0.002%), mass change ([5]; desorption, 70.0% RH): 0.51%
DVS 0 to 90 to 0% RH (dm/dt <0.002%), mass change ([5]; desorption, 80.0% RH): 0.75%
DVS 0 to 90 to 0% RH (dm/dt <0.002%), mass change ([5]; desorption, 90.0% RH): 1.34%
DVS 0 to 90 to 0% RH (dm/dt <0.002%), mass change ([5]; sorption, 0.0% RH): 0.00%
DVS 0 to 90 to 0% RH (dm/dt <0.002%), mass change ([5]; sorption, 5.0% RH): 0.01%
DVS 0 to 90 to 0% RH (dm/dt <0.002%), mass change ([5]; sorption, 10.0% RH): 0.02%
DVS 0 to 90 to 0% RH (dm/dt <0.002%), mass change ([5]; sorption, 15.0% RH): 0.04%
DVS 0 to 90 to 0% RH (dm/dt <0.002%), mass change ([5]; sorption, 20.0% RH): 0.05%
DVS 0 to 90 to 0% RH (dm/dt <0.002%), mass change ([5]; sorption, 25.0% RH): 0.07%
DVS 0 to 90 to 0% RH (dm/dt <0.002%), mass change ([5]; sorption, 30.0% RH): 0.10%
DVS 0 to 90 to 0% RH (dm/dt <0.002%), mass change ([5]; sorption, 40.0% RH): 0.16%
DVS 0 to 90 to 0% RH (dm/dt <0.002%), mass change ([5]; sorption, 50.0% RH): 0.24%
DVS 0 to 90 to 0% RH (dm/dt <0.002%), mass change ([5]; sorption, 60.0% RH): 0.34%
DVS 0 to 90 to 0% RH (dm/dt <0.002%), mass change ([5]; sorption, 70.0% RH): 0.48%
DVS 0 to 90 to 0% RH (dm/dt <0.002%), mass change ([5]; sorption, 80.0% RH): 0.72%
DVS 0 to 90 to 0% RH (dm/dt <0.002%), mass change ([5]; sorption, 90.0% RH): 1.34%

(−)-L-Malic acid
pKa1 [1, 6]: 3.5
pKa2 [1, 6]: 5.1
pKa1 ([1]; counter ion of the salt screen): 3.50
pKa2 ([1]; counter ion of the salt screen): 5.10
